Measurements as given in PubChem BioAssay (NCI).
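Interpolation was linear, between the two tested concentrations surrounding the appropriate level; five concentrations were tested over 48 hours in 96-well plates. TGI: concentration producing complete growth inhibition.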

Columns and labels:
Assay in all cases: NCI-60 cell line screen, 48 h
[1] = tested on: SW-620 colon
[2] = tested on: SK-OV-3 ovarian
[3] = tested on: RPMI-8226 leukemia
[4] = tested on: UACC-62 melanoma
[5] = tested on: HT29 colon
[6] = tested on: SK-MEL-5 melanoma
[7] = tested on: MALME-3M melanoma
[8] = tested on: HCT-15 colon
[9] = tested on: PC-3 prostate
[10] = tested on: NCI-H522 lung

N#Cc1c(-c2ccc(Cl)cc2)c2c(n(C3OC(CO)C(O)C(O)C3O)c1=S)CCC2 (centres undefined)
TGI [1]: 58.4 µM
TGI [2]: > 100 µM
TGI [3]: > 100 µM
TGI [4]: 34 µM
TGI [5]: > 100 µM
TGI [6]: 26 µM
TGI [7]: 51.8 µM
TGI [8]: > 100 µM
TGI [9]: > 100 µM

O=C(Cn1c(C(=O)/C=C/c2cccs2)nc2ccccc21)c1ccc(Cl)cc1
TGI [1]: > 100 µM
TGI [2]: > 100 µM
TGI [3]: 29.3 µM
TGI [4]: > 100 µM
TGI [5]: 56.9 µM
TGI [6]: 43.3 µM
TGI [7]: 54.7 µM
TGI [8]: 83 µM

CCOC(=O)c1cnc2oc3ccc(O)cc3c2c1-c1ccccc1
TGI [1]: > 100 µM
TGI [2]: 46.1 µM
TGI [3]: > 100 µM
TGI [4]: > 100 µM
TGI [5]: > 100 µM
TGI [6]: > 100 µM
TGI [7]: > 100 µM
TGI [8]: > 100 µM
TGI [9]: > 100 µM

CCOC(=O)C(NC(=O)CC)(Nc1cc(C)on1)C(F)(F)F (centres undefined)
TGI [1]: > 100 µM
TGI [3]: > 100 µM
TGI [5]: > 100 µM
TGI [6]: > 100 µM
TGI [8]: > 100 µM
TGI [9]: > 100 µM

COc1cc(/C=C2\Sc3scc(-c4cccc([N+](=O)[O-])c4)[n+]3C2=O)cc(OC)c1OC
TGI [1]: 23 µM
TGI [2]: 59.9 µM
TGI [3]: 22.7 µM
TGI [4]: 24.2 µM
TGI [5]: 41.2 µM
TGI [6]: 17.8 µM
TGI [7]: 28.4 µM
TGI [10]: 27.3 µM
TGI [9]: 86.3 µM

CC(C)C(OC(=O)c1ccc(NCc2cc(O)ccc2O)cc1)C(C)C
TGI [1]: 7.95 µM
TGI [3]: 0.931 µM
TGI [4]: 3.27 µM
TGI [5]: 16.6 µM
TGI [6]: 7.45 µM
TGI [7]: 3.3 µM
TGI [10]: 0.391 µM
TGI [8]: 1.77 µM
TGI [9]: 3.96 µM

CC(=O)Oc1c2oc3ccc(Cl)cc3c(=O)c2c(O)c2ccsc12
TGI [1]: > 100 µM
TGI [2]: > 100 µM
TGI [3]: > 100 µM
TGI [4]: > 100 µM
TGI [5]: > 100 µM
TGI [6]: > 100 µM
TGI [7]: > 100 µM
TGI [8]: > 100 µM
TGI [9]: > 100 µM

Nc1ccccc1CC(O)C(=O)O (centres undefined)
TGI [1]: > 100 µM
TGI [2]: > 100 µM
TGI [3]: > 100 µM
TGI [4]: > 100 µM
TGI [5]: > 100 µM
TGI [6]: > 100 µM
TGI [7]: > 100 µM
TGI [8]: > 100 µM
TGI [9]: > 100 µM

CC1CC/C(=C\c2ccc(Cl)cc2)C2OC(N)=C(C#N)C(c3ccc(Cl)cc3)=C12 (centres undefined)
TGI [1]: 89 µM
TGI [2]: 40 µM
TGI [3]: 29.2 µM
TGI [4]: 31 µM
TGI [5]: 20.7 µM
TGI [6]: 32.1 µM
TGI [7]: 28.7 µM
TGI [8]: 23.1 µM
TGI [9]: 28.4 µM

OC(CCNCc1ccccc1)c1ccc2ccccc2c1 (centres undefined)
TGI [1]: 43.1 µM
TGI [3]: 73.3 µM
TGI [4]: 35.8 µM
TGI [5]: 61.7 µM
TGI [6]: 32.4 µM
TGI [7]: 38.7 µM
TGI [10]: 35 µM
TGI [8]: 38.8 µM
TGI [9]: 47.4 µM

O=C(OCCN=c1c2ccccc2ccc2ccccc12)c1ccc([N+](=O)[O-])cc1
TGI [1]: > 100 µM
TGI [2]: > 100 µM
TGI [3]: > 100 µM
TGI [4]: > 100 µM
TGI [5]: > 100 µM
TGI [6]: > 100 µM
TGI [7]: > 100 µM
TGI [8]: > 100 µM
TGI [9]: > 100 µM

Cc1c(NC(=O)CSC(=S)N2CCN(Cc3ccccc3)CC2)c(=O)n(-c2ccccc2)n1C
TGI [1]: > 100 µM
TGI [2]: > 100 µM
TGI [3]: > 100 µM
TGI [5]: > 100 µM
TGI [6]: > 100 µM
TGI [7]: > 100 µM
TGI [10]: > 100 µM
TGI [8]: > 100 µM
TGI [9]: > 100 µM

COc1ccc(-c2cc(-c3cc4cc(Br)ccc4nc3Cl)c(C#N)c(N)n2)cc1
TGI [1]: > 12.5 µM
TGI [2]: > 12.5 µM
TGI [3]: > 12.5 µM
TGI [5]: > 12.5 µM
TGI [6]: > 12.5 µM
TGI [7]: > 12.5 µM
TGI [10]: > 12.5 µM
TGI [8]: > 12.5 µM
TGI [9]: > 12.5 µM

NNC(=O)Cn1c2ccc(Br)cc2c2nc3ccccc3nc21
TGI [1]: > 100 µM
TGI [2]: > 100 µM
TGI [3]: > 100 µM
TGI [4]: > 100 µM
TGI [5]: > 100 µM
TGI [6]: > 100 µM
TGI [9]: > 100 µM

CCOC(=O)c1nc2ccc(C(F)(F)F)cc2nc1Oc1cc(OC)cc(OC)c1
TGI [1]: > 100 µM
TGI [2]: > 100 µM
TGI [3]: > 100 µM
TGI [4]: > 100 µM
TGI [5]: > 100 µM
TGI [6]: 79.1 µM
TGI [7]: > 100 µM
TGI [8]: > 100 µM
TGI [9]: > 100 µM

COC(=O)c1c(O)ccc2c1c1c(n2Cc2cccc(C)c2)C(=O)c2ccccc2C1=O
TGI [1]: 32.4 µM
TGI [2]: 23.8 µM
TGI [3]: 16.9 µM
TGI [5]: 14 µM
TGI [6]: 26.3 µM
TGI [7]: 34.1 µM
TGI [10]: 26.8 µM
TGI [8]: 24.2 µM
TGI [9]: 23.5 µM

O=c1c2cc(I)ccc2nc(-c2cccs2)n1-c1ccc(O)cc1
TGI [1]: 69.6 µM
TGI [3]: 18.3 µM
TGI [4]: 26.9 µM
TGI [5]: 27.1 µM
TGI [6]: 24.3 µM
TGI [7]: 20.6 µM
TGI [10]: 30.1 µM
TGI [8]: 26.1 µM
TGI [9]: 22.5 µM

C(CCCCc1nnc(N2CCCCC2)o1)CCCc1nnc(N2CCCCC2)o1
TGI [1]: > 100 µM
TGI [2]: > 100 µM
TGI [5]: > 100 µM
TGI [6]: > 100 µM
TGI [7]: > 100 µM
TGI [10]: > 100 µM
TGI [8]: > 100 µM
TGI [9]: > 100 µM

Cc1ccc2c(c1C)C(=O)/C(=C/c1ccccc1C(=O)O)C2
TGI [1]: > 100 µM
TGI [3]: > 100 µM
TGI [4]: > 100 µM
TGI [5]: > 100 µM
TGI [6]: > 100 µM
TGI [7]: > 100 µM
TGI [10]: > 100 µM
TGI [8]: > 100 µM
TGI [9]: > 100 µM

CC(C)(Oc1ccc(Cl)cc1)C(=O)N(C(=O)N1CCC(c2ccccc2)CC1)c1ccccc1
TGI [1]: > 100 µM
TGI [2]: > 100 µM
TGI [3]: > 46.3 µM
TGI [4]: > 100 µM
TGI [5]: > 100 µM
TGI [6]: 65.8 µM
TGI [7]: > 100 µM
TGI [8]: > 100 µM
TGI [9]: > 100 µM

CC1(C)CC(C)(C)C1=NNC(N)=O
TGI [1]: > 100 µM
TGI [2]: > 100 µM
TGI [4]: > 100 µM
TGI [5]: > 100 µM
TGI [6]: > 100 µM
TGI [7]: > 100 µM
TGI [10]: > 100 µM
TGI [8]: > 100 µM
TGI [9]: > 100 µM

CCOc1cc(C2CC(c3ccc(NS(=O)(=O)c4cc([N+](=O)[O-])ccc4C)cc3)=NN2c2ccc([N+](=O)[O-])cc2[N+](=O)[O-])ccc1O (centres undefined)
TGI [1]: > 100 µM
TGI [2]: 10.4 µM
TGI [3]: > 100 µM
TGI [5]: > 100 µM
TGI [6]: 23.1 µM
TGI [7]: 23.2 µM
TGI [10]: 34.2 µM
TGI [8]: > 100 µM
TGI [9]: 64.7 µM

CN(C)c1nc2oc(-c3ccccc3)c(-c3ccccc3)c2c2nnnn12
TGI [1]: > 100 µM
TGI [2]: > 100 µM
TGI [3]: > 100 µM
TGI [4]: > 100 µM
TGI [5]: > 100 µM
TGI [6]: > 100 µM
TGI [10]: > 100 µM
TGI [8]: > 100 µM
